From PubChem BioAssay (NCI)
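These data come from cells grown in 96-well plates and exposed to compound for 48 hours at five concentrations. Here, GI50 denotes the concentration required for 50% inhibition of growth. The concentration for full growth arrest is given as TGI.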

Legend:
Assay in all cases: growth of human tumour cells (NCI), 48 h
HCT-116 colon = tested on: HCT-116 colon
UACC-62 melanoma = tested on: UACC-62 melanoma
SNB-19 CNS = tested on: SNB-19 CNS
OVCAR-8 ovarian = tested on: OVCAR-8 ovarian
K-562 leukemia = tested on: K-562 leukemia
NCI-H23 lung = tested on: NCI-H23 lung
UACC-257 melanoma = tested on: UACC-257 melanoma
T-47D breast = tested on: T-47D breast
HCC-2998 colon = tested on: HCC-2998 colon
DU-145 prostate = tested on: DU-145 prostate
HT29 colon = tested on: HT29 colon
SK-MEL-28 melanoma = tested on: SK-MEL-28 melanoma
MDA-MB-435 = tested on: MDA-MB-435
SF-268 CNS = tested on: SF-268 CNS
NCI-H522 lung = tested on: NCI-H522 lung
LOX IMVI melanoma = tested on: LOX IMVI melanoma
NCI-H226 lung = tested on: NCI-H226 lung
HOP-92 NSCLC = tested on: HOP-92 NSCLC
CAKI-1 renal = tested on: CAKI-1 renal
MCF7 breast = tested on: MCF7 breast
OVCAR-3 ovarian = tested on: OVCAR-3 ovarian
MDA-MB-468 breast = tested on: MDA-MB-468 breast
RXF 393 renal = tested on: RXF 393 renal
MOLT-4 leukemia = tested on: MOLT-4 leukemia
IGROV1 ovarian = tested on: IGROV1 ovarian
RPMI-8226 leukemia = tested on: RPMI-8226 leukemia
NCI/ADR-RES ovarian = tested on: NCI/ADR-RES ovarian
KM12 colon = tested on: KM12 colon
EKVX NSCLC = tested on: EKVX NSCLC
PC-3 prostate = tested on: PC-3 prostate
M14 melanoma = tested on: M14 melanoma
A549 NSCLC = tested on: A549 NSCLC
OVCAR-5 ovarian = tested on: OVCAR-5 ovarian
HL-60(TB) leukemia = tested on: HL-60(TB) leukemia
A498 renal = tested on: A498 renal
SF-539 CNS = tested on: SF-539 CNS
HS 578T breast = tested on: HS 578T breast
SF-295 CNS = tested on: SF-295 CNS
SNB-75 CNS = tested on: SNB-75 CNS
CCRF-CEM leukemia = tested on: CCRF-CEM leukemia
BT-549 breast = tested on: BT-549 breast
OVCAR-4 ovarian = tested on: OVCAR-4 ovarian
U251 CNS = tested on: U251 CNS
786-0 renal = tested on: 786-0 renal
MALME-3M melanoma = tested on: MALME-3M melanoma
TK-10 renal = tested on: TK-10 renal
HOP-62 NSCLC = tested on: HOP-62 NSCLC
NCI-H460 lung = tested on: NCI-H460 lung
SK-OV-3 ovarian = tested on: SK-OV-3 ovarian
HCT-15 colon = tested on: HCT-15 colon
SK-MEL-5 melanoma = tested on: SK-MEL-5 melanoma
SN12C renal = tested on: SN12C renal
SK-MEL-2 melanoma = tested on: SK-MEL-2 melanoma
ACHN renal = tested on: ACHN renal
SW-620 colon = tested on: SW-620 colon
COLO 205 colon = tested on: COLO 205 colon

## CCCCCCCCCCCCCCCCCCCC(=O)NCCc1c[nH]c2ccc(OC(=O)NOCCOCCOCCOCCOCCOCCOCCOCCOCCOCCOCCOCCOCCOCCOCCOCCOCCOCCOCCOCCOCCOCCOC)cc12
HCT-116 colon
  GI50: 17.4 µM
  TGI: 38.2 µM
UACC-62 melanoma
  GI50: 17 µM
  TGI: 31.4 µM
SNB-19 CNS
  GI50: 20.3 µM
  TGI: 51.7 µM
OVCAR-8 ovarian
  GI50: 16.4 µM
  TGI: 46.2 µM
K-562 leukemia
  GI50: 17.7 µM
  TGI: 70.9 µM
NCI-H23 lung
  GI50: 19.9 µM
  TGI: 46.2 µM
UACC-257 melanoma
  GI50: 14.7 µM
  TGI: 30.2 µM
T-47D breast
  GI50: 9.98 µM
  TGI: 23.2 µM
HCC-2998 colon
  GI50: 15.6 µM
  TGI: 30 µM
DU-145 prostate
  GI50: 28 µM
  TGI: > 100 µM
HT29 colon
  GI50: 15.6 µM
  TGI: 30.8 µM
SK-MEL-28 melanoma
  GI50: 15.9 µM
  TGI: 33.9 µM
MDA-MB-435
  GI50: 20.6 µM
  TGI: 48.6 µM
SF-268 CNS
  GI50: 14.8 µM
  TGI: 52.7 µM
NCI-H522 lung
  GI50: 14.9 µM
  TGI: 28.8 µM
LOX IMVI melanoma
  GI50: 14.9 µM
  TGI: 28.5 µM
NCI-H226 lung
  GI50: 17.4 µM
  TGI: 38.5 µM
HOP-92 NSCLC
  GI50: 6.3 µM
  TGI: 44.7 µM
CAKI-1 renal
  GI50: > 100 µM
  TGI: > 100 µM
MCF7 breast
  GI50: 11 µM
  TGI: 28.5 µM
OVCAR-3 ovarian
  GI50: 13.2 µM
  TGI: 53.3 µM
MDA-MB-468 breast
  GI50: 11.9 µM
  TGI: 26.3 µM
RXF 393 renal
  GI50: 19.7 µM
  TGI: 53.6 µM
MOLT-4 leukemia
  GI50: 5.32 µM
  TGI: 24.9 µM
IGROV1 ovarian
  GI50: 21.4 µM
  TGI: 57.1 µM
RPMI-8226 leukemia
  GI50: 11.8 µM
  TGI: 37.6 µM
NCI/ADR-RES ovarian
  GI50: > 100 µM
  TGI: > 100 µM
KM12 colon
  GI50: 19.8 µM
  TGI: 41.2 µM
EKVX NSCLC
  GI50: 20.9 µM
  TGI: 88.4 µM
PC-3 prostate
  GI50: 18.3 µM
  TGI: 70.9 µM
M14 melanoma
  GI50: 17.5 µM
  TGI: 35.2 µM
A549 NSCLC
  GI50: 17.7 µM
  TGI: 47.9 µM
OVCAR-5 ovarian
  GI50: 17.3 µM
  TGI: 41.9 µM
HL-60(TB) leukemia
  GI50: 14.4 µM
  TGI: 32.7 µM
A498 renal
  GI50: 25.9 µM
  TGI: 89.9 µM
SF-539 CNS
  GI50: 17.9 µM
  TGI: 40 µM
HS 578T breast
  GI50: 16.6 µM
  TGI: 41.2 µM
SF-295 CNS
  GI50: 17.8 µM
  TGI: 36.7 µM
SNB-75 CNS
  GI50: 26.9 µM
  TGI: 86 µM
CCRF-CEM leukemia
  GI50: 13.5 µM
  TGI: 33.8 µM
BT-549 breast
  GI50: 14.1 µM
  TGI: 28.5 µM
OVCAR-4 ovarian
  GI50: 18.7 µM
  TGI: 87.7 µM
U251 CNS
  GI50: 16.7 µM
  TGI: 32.8 µM
786-0 renal
  GI50: 31 µM
  TGI: 89 µM
MALME-3M melanoma
  GI50: 14.4 µM
  TGI: 29.3 µM
TK-10 renal
  GI50: 19.5 µM
  TGI: 56.1 µM
HOP-62 NSCLC
  GI50: 17.8 µM
  TGI: 36.3 µM
NCI-H460 lung
  GI50: 23.4 µM
  TGI: 79.4 µM
SK-OV-3 ovarian
  GI50: 19.1 µM
  TGI: 41.3 µM
HCT-15 colon
  GI50: 54.4 µM
  TGI: > 100 µM
SK-MEL-5 melanoma
  GI50: 13.5 µM
  TGI: 26.5 µM
SN12C renal
  GI50: 15.1 µM
  TGI: 39.5 µM
SK-MEL-2 melanoma
  GI50: 12.8 µM
  TGI: 26 µM
ACHN renal
  GI50: 45.7 µM
  TGI: > 100 µM
SW-620 colon
  GI50: 17.8 µM
  TGI: 33.1 µM
COLO 205 colon
  GI50: 16.6 µM
  TGI: 30.9 µM
